Test results published in PubChem BioAssay (NCI).
Where “and” joins values, the source holds several entries; their conditions need not be identical. Equal values may be shown once.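 1) Cells in 96-well plates. 2) Compound, 48 h, 5 concentrations. 3) Linear interpolation between surrounding doses. 4) Unreached endpoint = highest concentration. GI50 = concentration required for 50% inhibition of growth. The concentration for full growth arrest is given as TGI.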

What was measured:
Experiment in all cases: NCI anticancer screen, dose series, 48 h
SF-268 CNS = test system: SF-268 CNS
MALME-3M melanoma = test system: MALME-3M melanoma
NCI-H460 lung = test system: NCI-H460 lung
HOP-92 NSCLC = test system: HOP-92 NSCLC
SK-MEL-5 melanoma = test system: SK-MEL-5 melanoma
CCRF-CEM leukemia = test system: CCRF-CEM leukemia
SF-539 CNS = test system: SF-539 CNS
TK-10 renal = test system: TK-10 renal
OVCAR-5 ovarian = test system: OVCAR-5 ovarian
ACHN renal = test system: ACHN renal

SMILES | TGI (SF-268 CNS) | TGI (MALME-3M melanoma) | TGI (NCI-H460 lung) [µM] | TGI (HOP-92 NSCLC) | TGI (SK-MEL-5 melanoma) | TGI (CCRF-CEM leukemia) | TGI (SF-539 CNS) | TGI (TK-10 renal) | TGI (OVCAR-5 ovarian) | TGI (ACHN renal) | GI50 (SF-268 CNS) | GI50 (MALME-3M melanoma) | GI50 (NCI-H460 lung) [µM] | GI50 (HOP-92 NSCLC) | GI50 (SK-MEL-5 melanoma) [µM] | GI50 (CCRF-CEM leukemia) | GI50 (SF-539 CNS) | GI50 (TK-10 renal) | GI50 (OVCAR-5 ovarian) [µM] | GI50 (ACHN renal) [µM]
O=C1OCc2nc3c(c(-c4ccccc4C(F)(F)F)c21)C(=O)OC3 | > 100 µM | > 100 µM | > 100 | > 100 µM | > 100 µM | > 100 µM | > 100 µM | > 100 µM | > 100 µM | > 100 µM | – | – | – | – | – | – | – | – | – | –
Cc1cc2c3ccccc3n3c2c2c1OC1(C)CCC(C2C1)C3(C)C (stereo not given) | > 25 µM | > 25 µM | > 25 | > 25 µM | > 25 µM | > 25 µM | > 25 µM | > 25 µM | > 25 µM | > 25 µM | – | – | – | – | – | – | – | – | – | –
COc1cccc(/C=C\C(=O)c2ccccc2)c1 | 28.9 µM | 31.4 µM | 22.3 | 26.2 µM | 24.8 µM | > 100 µM | 24.1 µM | 30.4 µM | 41.2 µM | 23.4 µM | 5.96 µM | 14.3 µM | 4.02 | 6.46 µM | 9.4 | 6.79 µM | 10.7 µM | 13.7 µM | 9.84 | 7.34
COc1cc2c(cc1O)CCN[C@@]21CS[C@H]2c3c(OC(C)=O)c(C)c4c(c3C(COC1=O)N1C2C2NC(Cc3cc(C)c(OC)c(O)c32)[C@@H]1O)OCO4 (stereo not given in full) | < 10 nM and 4.8e-07 µg/mL and 0.0045 µg/mL | 0.000506 ng/mL | < 0.01 | 9.17 µM and 5.9e-07 µg/mL | < 10 nM and 2.8e-07 µg/mL and 0.0045 µg/mL | > 100 µM and 0.000154 µg/mL and 0.0045 µg/mL | < 10 nM and 0.0045 µg/mL | 13.1 µM and 6.24 µg/mL | 14.6 µM and 7.3e-07 µg/mL and 0.0045 µg/mL | 12.9 µM and 2e-06 µg/mL and 0.0045 µg/mL | 4.5 ng/mL | 0.000122 ng/mL | – | 0.000135 ng/mL | – | 4.5 ng/mL | 4.5 ng/mL | 0.00184 ng/mL and 4.5 ng/mL | – | –
Cc1[nH]c2c(C)c3c([nH]c4ccc(Cl)cc43)c(C)c2c(=O)c1C | > 100 µM | 72.8 µM | 13.5 | > 100 µM | 42.2 µM | 18.1 µM | 36 µM | 24.1 µM | 12.4 µM | 11.6 µM | – | – | – | – | – | – | – | – | – | –
COC(=O)[C@]12CC[C@@H](C)[C@H](C)[C@@H]1C1=CC[C@@H]3[C@@]4(C)C[C@@H](OC(C)=O)[C@H](OC(C)=O)[C@@](C)(COC(C)=O)[C@@H]4[C@H](O)C[C@@]3(C)[C@]1(C)CC2 | > 100 µM | 74.8 µM | 16.2 | > 100 µM | 1.72 µM | > 100 µM | > 100 µM | > 100 µM | > 100 µM | > 100 µM | 2.62 µM | 3.82 µM | 0.505 | 3.9 µM | 0.367 | 1.96 µM | 3.92 µM | 3.08 µM | 7.04 | 2.71
Nc1nc(SCC#CCCl)c2[nH]cnc2n1 | 18.6 µM | 24 µM | 16.7 | 10.4 µM | 12.6 µM | 19.3 µM | 15.4 µM | 11.1 µM | 17.7 µM | 15 µM | 3.93 µM | 4.81 µM | 3.62 | 2.16 µM | 3.11 | 3.39 µM | 3.61 µM | 1.87 µM | 4.58 | 3.7
COc1ccc(N2C(=O)[C@@H]3[C@@H]4CC(C)CC[C@@H]4c4c([nH]c5ccccc45)[C@@H]3C2=O)cc1 (stereo not given in full) | 37.9 µM | > 100 µM | 59.3 | 23 µM | > 100 µM | > 100 µM | 25.9 µM | 45.6 µM | > 100 µM | 26.9 µM | – | – | – | – | – | – | – | – | – | –
COc1ccc2c(Cl)cc(NC(=S)Nc3ccccc3)nc2c1 | 57.2 µM | 69.4 µM | > 100 | 49.4 µM | > 100 µM | 90.9 µM | > 100 µM | > 100 µM | 99.6 µM | > 100 µM | – | – | – | – | – | – | – | – | – | –
COc1cccc(NC(=O)/C(CS(=O)(=O)CCC(C(C)=O)C(C)=O)=N\NC(C)(C)C)c1 | > 100 µM | > 100 µM | > 100 | > 100 µM | > 100 µM | > 100 µM | > 100 µM | > 100 µM | > 100 µM | > 100 µM | – | – | – | – | – | – | – | – | – | –
O=C1c2ccccc2C(=O)c2c1ccc1c3ccccc3n(-c3ccccc3)c21 | 54 µM | 44.6 µM | 63.8 | 11.7 µM | 29.9 µM | 14.5 µM | 43.6 µM | 60.1 µM | 47 µM | 41.2 µM | – | – | – | – | – | – | – | – | – | –
Oc1ccccc1/C=N\NC(=S)Nc1ccc(F)cc1 | > 73.6 µM | 8.35 µM | 18.1 | > 100 µM | 7.15 µM | – | 32.3 µM | > 100 µM | > 100 µM | > 100 µM | 0.95 µM | 1.2 µM | 0.446 | 0.962 µM | 1.15 | 0.396 µM | 2.12 µM | 6.83 µM | 4.63 | 0.674
COC(=O)C(=O)C(C(=O)C(=O)Nc1cc(C)ccc1C)c1nc2ccccc2[nH]c1=O (stereo not given) | > 100 µM | > 100 µM | > 100 | > 100 µM | > 100 µM | > 100 µM | > 100 µM | > 100 µM | > 100 µM | > 100 µM | – | – | – | – | – | – | – | – | – | –
COc1oc(C2C/C(=C/C(C)=C/C(C)=C/C(C)=C/c3ccc([N+](=O)[O-])cc3)CO2)c(C)c(=O)c1C (stereo not given) | 42.6 µM | 16.2 µM | 15.8 | 40 µM | 3.61 µM | 23.5 µM | 33.4 µM | > 45.6 µM | > 100 µM | 6.58 µM | – | – | – | – | – | – | – | – | – | –
O=[N+]([O-])c1ccc(N=P(c2ccccc2)(c2ccccc2)c2ccccc2)n2nnnc12 | > 100 µM | > 100 µM | > 100 | 67.5 µM | > 100 µM | > 100 µM | 50.9 µM | > 100 µM | > 100 µM | > 100 µM | – | – | – | – | – | – | – | – | – | –
COC(=O)CC(=O)OC1C[C@@H]2CCC3C(C)(C)CCC[C@]3(C)C23CC[C@@]1(C)C3 (stereo not given in full) | 35.9 µM | 32.7 µM | 37.5 | 31.9 µM | 31.7 µM | > 100 µM | 39.1 µM | 34.3 µM | 29.6 µM | 31.7 µM | – | – | – | – | – | – | – | – | – | –
